From US12344649B2, “Modulators of parathyroid hormone receptor (PTHR1)” (Flagship Pioneering Innovations VI, LLC, priority 2019, dated 2025)
Values joined by “and” are separate entries in the source; they are usually repeats but may differ in a detail not shown here. Identical values can stand only once. One block for each sequence: values may come before it. Where no end group is shown, it is not given here.

Key:
Format in all cases: cell-based
[1] = target: T1, PTHR1 (Homo sapiens, UniProt Q03431); assay: β-arrestin2 recruitment BRET assay in transfected HEK293T cells; design: Flag (N); Life Technologies Corporation, CA (arrestin cDNA); host or cells: HEK293T (CRL-3216, ATCC); settings: for −log10Slope / EC50: β-arrestin2 recruitment, replicate plates; for −log10Slope: fitted curve slope; for EC50: read-out: −log10EC50 (converted)
T1 sequence (Q03431 27-593): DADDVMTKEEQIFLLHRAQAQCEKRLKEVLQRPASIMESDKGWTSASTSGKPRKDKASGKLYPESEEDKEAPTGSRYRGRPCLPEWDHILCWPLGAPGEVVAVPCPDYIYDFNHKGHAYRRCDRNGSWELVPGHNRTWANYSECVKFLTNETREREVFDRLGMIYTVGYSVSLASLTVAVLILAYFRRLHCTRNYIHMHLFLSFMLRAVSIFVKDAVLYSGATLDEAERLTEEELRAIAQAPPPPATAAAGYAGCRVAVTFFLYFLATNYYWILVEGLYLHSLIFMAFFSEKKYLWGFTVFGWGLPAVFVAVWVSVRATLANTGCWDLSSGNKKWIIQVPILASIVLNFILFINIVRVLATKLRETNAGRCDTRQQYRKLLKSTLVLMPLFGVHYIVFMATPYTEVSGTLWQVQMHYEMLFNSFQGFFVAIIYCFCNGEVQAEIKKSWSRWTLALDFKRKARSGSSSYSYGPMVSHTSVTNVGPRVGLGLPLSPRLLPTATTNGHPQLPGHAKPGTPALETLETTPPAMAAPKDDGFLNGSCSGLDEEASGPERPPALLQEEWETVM
Protocol: (§1) 18-24 hours post transfection, the Luciferase substrate Coelenterazine (NanoLight Technologies, AZ) was added to cells, a baseline BRET measurement was taken after 5 minutes incubation, and then serial dilutions of peptides, diluted in PBS (with 0.5 mM MgCl2+0.1% BSA FAF), were added to cells, and BRET signal was measured every 2 minutes for 30 minutes on Hybrid Multi-Mode Reader (Synergy Neo2, BioTek, VT). Seventy-five peptides were tested in the β-arrestin recruitment assay.

[2] = target: T1, PTHR1; assay: cAMP accumulation assay (HTRF) in CHO-K1/Ga15/PTHR1 cells; design: host or cells: CHO-K1 (recombinant line CHO-K1/Ga15/PTHR1); settings: for EC50: read-out: −log10EC50 (converted)
Protocol: Cell suspension (5 μL) was seeded in 384-well plates at a density of 3,000 cells/well. Cells were treated with test samples (5 μL) or agonist (PTH 1-34) for 30 minutes at room temperature. cAMP-d2 working solution (5 μL) and anti-cAMP-Cryptate working solution (5 μL) were added to cells and incubated for 60 minutes at room temperature. The signal of the assay plate was read with PheraStar (BMG LABTECH, NC), an HTRF compatible reader.

[3] = target: T1, PTHR1; assay: β-arrestin1 recruitment BRET assay in transfected HEK293T cells; design: Flag (N); Life Technologies Corporation, CA (arrestin cDNA); host or cells: HEK293T (CRL-3216, ATCC); settings: for −log10Slope / EC50: β-arrestin1 recruitment, replicate plates; for −log10Slope: fitted curve slope; for EC50: read-out: −log10EC50 (converted)
Protocol: as §1

[4] = cAMP accumulation, fitted curve slope, replicate plates
[5] = cAMP accumulation, replicate plates
[6] = relative to PTH [1-34], HEK293T cells, BRET

Sequence: AVAEIQLMHQRAKWELEYELFEMFLKLLEEIF [Peptide R1-100]
−log10Slope [1]: −5.84 and −1.653 and −5.805
Emax ([2]; CHO-K1, cAMP assay, fitted dose-response maximum): 99.9%
EC50 ([2]; cAMP assay, fitted dose-response curve): 52.8 nM
−log10Slope ([2]; cAMP assay, fitted dose-response slope): −12.0796
−log10Slope [3]: −6.023 and −5.129 and −4.482
EC50 [3]: 607 nM and 605 nM and 569 nM

Sequence: AVAEIQLMHQRAKWGLDLELAVKLQEILKDVL [Peptide R2-28]
−log10Slope [1]: −3.381
EC50 [1]: 800 nM
−log10Slope [2, 4]: −5.52
EC50 [2, 5]: 92.4 nM
−log10Slope [3]: −1.455

Sequence: AVAEIQLMHQRAKWGLDLELRARLREILRDVY [Peptide R2-31]
β-arrestin2 assay activity compared to control peptide ([1]; FIG. 2, PTH 1-34 positive control): activity similar to the control peptide
β2-arrestin [1, 6]: +
−log10Slope [1]: −3.98 and −2.409
EC50 [1]: 6.58 nM and 7.64 nM
−log10Slope [2, 4]: −0.697
−log10Slope [3]: −2.895 and −4.559
EC50 [3]: 9.96 nM and 2.96 nM

Sequence: LMHNLGKHLNSMERVEWLRKKLQDVHNFVA [PTH 7-36 antago, reference compound]
−log10Slope [1]: −2.649
EC50 [1]: 46.9 nM
−log10Slope [3]: −1.192
EC50 [3]: 105 nM

Now from value to sequence, other results behind:

−log10Slope [1]: −4.789
−log10Slope [2, 4]: −7.566
EC50 [2, 5]: 124 nM
β1-arrestin [3, 6]: ++
−log10Slope [3]: −5.307
EC50 [3]: 0.0179 nM
Sequence: AVAEIQLMHQRAKWELLEELLKILLELLKEYI [Peptide R2-38]
β-arrestin1 recruitment compared to PTH 1-34 ([3]; FIG. 1, PTH 1-34 positive control): higher levels of recruitment of β-arrestin 1

−log10Slope [1]: −6.422 and −8.23 and −2.379
−log10Slope [2, 4]: 7.669
EC50 [2, 5]: 0.0348 nM
cAMP ([2]; relative to PTH [1-34], CHO-K1/Ga15/PTHR1 cells): ++
−log10Slope [3]: −3.786 and −3.741 and −1.605
Sequence: AVAEIQLMHQRAKWELQEIGIAITLRLLARYI [Peptide R2-43]
cAMP accumulation activity compared to control peptide ([2]; FIG. 3, PTH 1-34 positive control): increased activity as compared to the control peptide

−log10Slope [1]: −5.314 and −3.58 and −2.2339
−log10Slope [3]: −0.2801 and −4.065 and −4.878
EC50 [3]: 775 nM and 594 nM
Sequence: AVAEIQLMHQRAKWELQEIGIKITLDLLEAYL [Peptide R2-39]

−log10Slope [1]: −3.413 and −1.882 and −2.306
EC50 [1]: 539 nM and 187 nM and 550 nM
−log10Slope [3]: −3.506 and −2.782 and −5.541
EC50 [3]: 565 nM and 447 nM and 394 nM
Sequence: AVAEIQLMHQRAKWSILEELLKILTALLDEYI [Peptide R2-46]
